Values joined by “and” are separate entries in the source; they are usually repeats but may differ in a detail not shown here. Equal entries are not always repeated.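 In this assay, cells in 96-well plates receive the compound at five concentrations for 48 hours. Endpoints are linearly interpolated between the surrounding concentrations. The concentration for 50% growth inhibition is given as GI50. TGI marks complete inhibition of growth.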
Experiments:
Experiment in all cases: NCI tumour cell line growth inhibition, 48 h
SW-620 colon = test system: SW-620 colon
HOP-92 NSCLC = test system: HOP-92 NSCLC
A498 renal = test system: A498 renal
HL-60(TB) leukemia = test system: HL-60(TB) leukemia
HOP-62 NSCLC = test system: HOP-62 NSCLC
PC-3 prostate = test system: PC-3 prostate
UACC-62 melanoma = test system: UACC-62 melanoma
A549 NSCLC = test system: A549 NSCLC
SK-MEL-5 melanoma = test system: SK-MEL-5 melanoma
RPMI-8226 leukemia = test system: RPMI-8226 leukemia

Row | SMILES | TGI (SW-620 colon) | GI50 (HOP-92 NSCLC) | TGI (HOP-92 NSCLC) | GI50 (A498 renal) | TGI (A498 renal) | GI50 (HL-60(TB) leukemia) | TGI (HL-60(TB) leukemia) | GI50 (HOP-62 NSCLC) | TGI (HOP-62 NSCLC) | GI50 (PC-3 prostate) | TGI (PC-3 prostate) | GI50 (UACC-62 melanoma) | TGI (UACC-62 melanoma) | GI50 (A549 NSCLC) | TGI (A549 NSCLC) | GI50 (SK-MEL-5 melanoma) | TGI (SK-MEL-5 melanoma) | GI50 (RPMI-8226 leukemia) | TGI (RPMI-8226 leukemia) | GI50 (SW-620 colon)
1 | C#COc1cccc(Nc2ncnc3ncc(NC(=O)CCl)cc23)c1 | > 62.5 µM | > 62.5 µM | > 62.5 µM | > 62.5 µM | > 62.5 µM | > 21.2 µM | > 45 µM | > 62.5 µM | > 62.5 µM | > 36.7 µM | > 62.5 µM | > 36.1 µM | > 62.5 µM | > 13.8 µM | > 62.5 µM | > 51.2 µM | > 62.5 µM | > 19.8 µM | > 62.5 µM | –
2 | COc1cc([C@@H]2c3cc4c(cc3[C@@H](O[C@@H]3O[C@@H]5CO[C@@H](c6cccs6)O[C@H]5[C@H](O)[C@H]3O)[C@H]3COC(=O)[C@H]23)OCO4)cc(OC)c1O | > 46.1 µM | – | 1.99 µM | 0.284 µM | 2.2 µM | 0.119 µM | 0.967 µM | 0.197 µM | 2.34 µM | 1.69 µM | > 69.7 µM | 0.233 µM | 3.3 µM | 0.0969 µM | 2.56 µM | 0.157 µM | 1.33 µM | – | 6.48 µM | 0.175 µM
3 | COC(=O)Nc1nc2cc3c(cc2s1)OCCO3 | > 50 µM | > 50 µM | > 50 µM | > 50 µM | > 50 µM | > 50 µM | > 50 µM | > 50 µM | > 50 µM | > 50 µM | > 50 µM | > 50 µM | > 50 µM | > 50 µM | > 50 µM | > 50 µM | > 50 µM | > 50 µM | > 50 µM | > 50 µM
4 | Nc1ccccc1NC(=O)c1ccc(CN2CCC/C(=C\c3cccc(Cl)c3)C2=O)cc1 | > 100 µM | 1.76 µM | 16.2 µM | 0.441 µM | 3.66 µM | 0.449 µM | 4.89 µM | 0.388 µM | > 100 µM | 0.463 µM | 14.1 µM | 0.0517 µM | 14.6 µM | 1.45 µM | 75.7 µM | 0.0836 µM | 1.08 µM | 0.921 µM | 4.58 µM | 0.0539 µM
5 | COc1cc2c3c(n(C)c(=O)c2cc1OC)-c1cc2c(cc1/C3=C\CCCBr)OCO2 | > 100 µM | 92.4 µM | > 100 µM | 26.3 µM | 68.9 µM | > 80.3 µM | > 100 µM | – | 17.1 µM | > 95.2 µM | > 100 µM | 7.55 µM | 28.9 µM | > 100 µM | > 100 µM | > 69.5 µM | > 100 µM | 29.1 µM | > 100 µM | > 100 µM
6 | COc1ccc2c(=O)c3cc([N+](=O)[O-])ccc3n(C)c2c1 | > 100 µM | – | > 100 µM | – | > 100 µM | – | > 100 µM | – | – | – | > 100 µM | – | > 100 µM | – | > 100 µM | – | > 100 µM | – | > 100 µM | –
7 | COc1c(CNC(=O)CCl)cc2[nH]c(C)cc2c1CNC(=O)CCl | 20.7 µM | 4.08 µM | 20.2 µM | 4.29 µM | 19.1 µM | 4.32 µM | 26.5 µM | 6.1 µM | 20.2 µM | 12.2 µM | 33.9 µM | 1.28 µM | 4.11 µM | 7.38 µM | 26.7 µM | 8.02 µM | 25 µM | 5.17 µM | 52.8 µM | 5.61 µM
8 | CC[C@H](C)n1cc(C)c2c(C(=O)NCc3c(C)cc(C)[nH]c3=O)cc(-c3ccc(N4CCNCC4)nc3)cc21 | 21.8 µM and 22.1 µM | 6.72 µM and 6.83 µM | 20.9 µM and 21.1 µM | 15.4 µM and 12.6 µM | 30 µM and 26.9 µM | 24.6 µM and 14.6 µM | 41.8 µM and 31.9 µM | 17.1 µM and 14.9 µM | 33.1 µM and 29.8 µM | 17.3 µM and 13.9 µM | 31.5 µM and 27.3 µM | 17.5 µM and 14.3 µM | 33.2 µM and 28.5 µM | 16.8 µM and 16.3 µM | 32.4 µM and 32.1 µM | 15.8 µM and 6.13 µM | 29.2 µM and 18 µM | 11.4 µM and 11.7 µM | 28 µM and 28.9 µM | 10.1 µM and 8.21 µM
9 | Cc1cc(-c2nc(-c3ccc(OC(F)(F)F)cc3)no2)nn1Cc1ccnc(N2CCN(C3CC3)CC2)c1 | > 68.7 µM | 1.55 µM | 81.4 µM | 0.482 µM | > 100 µM | 2.93 µM | > 69.2 µM | – | – | 3.38 µM | > 100 µM | 4.23 µM | > 49.1 µM | 2.55 µM | > 100 µM | < 0.01 µM | 2.45 µM | 0.582 µM | > 58.3 µM | > 34.5 µM
10 | COc1ccc(Cc2cnc(NC(=O)c3sc4ccccc4c3Cl)s2)cc1 | > 100 µM | 5.26 µM | > 100 µM | 0.222 µM | 12.7 µM | 0.256 µM | 0.642 µM | 0.513 µM | > 100 µM | 0.405 µM | > 100 µM | 0.468 µM | > 100 µM | 0.571 µM | > 100 µM | 0.335 µM | 3.56 µM | 0.435 µM | > 42.7 µM | 0.409 µM
11 | c1ccc(-c2nn(-c3ccccc3)[n+](-c3cccc4ccccc34)n2)cc1 | 15.9 µM | 1.15 µM | 7.68 µM | 2.91 µM | 33.8 µM | 0.386 µM | 2.06 µM | 1.39 µM | 33.2 µM | 0.583 µM | > 100 µM | 1.14 µM | 3.59 µM | 2.65 µM | > 100 µM | 0.674 µM | 4.1 µM | 0.472 µM | > 100 µM | 1.44 µM
12 | CCOC(=O)C1=C(C)NC2SC(=O)/C(=C\c3ccccc3)N2C1c1ccccc1 (stereo not drawn) | > 100 µM | > 100 µM | > 100 µM | > 100 µM | > 100 µM | 25.6 µM | > 100 µM | > 100 µM | > 100 µM | 31 µM | > 100 µM | > 100 µM | > 100 µM | > 100 µM | > 100 µM | 16.1 µM | > 100 µM | 33.5 µM | > 100 µM | > 100 µM

Reference: PubChem BioAssay (NCI)
